Measurements taken from ChEMBL document CHEMBL4433254 (Bioorg Med Chem Lett, 2019).
In brackets after ≈: the same amount, converted by molar mass.

Assays:
[1] = Lipophilicity, log D of compound at pH 7.4; conditions: buffer
[2] = Partition coefficient, log P of the compound; conditions: octanol/water
Candida albicans = experiment: Antifungal activity against Candida albicans; type: functional
Homo sapiens [3] = species on record: Homo sapiens; experiment: Selectivity index, ratio of IC50 for human CYP11B1 expressed in hamster fibroblasts to ratio of IC50 human CYP11B2 expressed in hamster fibroblasts
[4] = molecular target: T1, Cytochrome P450 11B2, mitochondrial (Homo sapiens, UniProt P19099); experiment: Inhibition of human CYP11B2 expressed in hamster fibroblasts using deoxycorticosterone as substrate
T1 sequence (P19099 whole entry): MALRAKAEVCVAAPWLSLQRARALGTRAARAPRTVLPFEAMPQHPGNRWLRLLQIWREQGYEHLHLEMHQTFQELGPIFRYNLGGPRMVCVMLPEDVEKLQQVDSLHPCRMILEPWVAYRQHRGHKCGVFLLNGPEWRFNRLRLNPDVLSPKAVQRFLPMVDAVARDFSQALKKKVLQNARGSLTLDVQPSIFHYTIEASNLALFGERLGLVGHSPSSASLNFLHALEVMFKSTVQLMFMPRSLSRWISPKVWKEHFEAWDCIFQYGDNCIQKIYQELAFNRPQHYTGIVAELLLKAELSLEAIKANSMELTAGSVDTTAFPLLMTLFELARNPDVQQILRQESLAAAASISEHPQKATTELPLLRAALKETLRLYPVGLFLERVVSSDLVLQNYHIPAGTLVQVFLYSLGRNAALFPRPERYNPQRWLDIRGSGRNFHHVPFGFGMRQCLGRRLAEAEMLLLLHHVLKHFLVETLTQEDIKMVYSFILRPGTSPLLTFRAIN

[5] = molecular target: T2, Cytochrome P450 11B1, mitochondrial (Homo sapiens, UniProt P15538); experiment: Inhibition of human CYP11B1 expressed in hamster fibroblasts using deoxycorticosterone as substrate
T2 sequence (P15538 whole entry): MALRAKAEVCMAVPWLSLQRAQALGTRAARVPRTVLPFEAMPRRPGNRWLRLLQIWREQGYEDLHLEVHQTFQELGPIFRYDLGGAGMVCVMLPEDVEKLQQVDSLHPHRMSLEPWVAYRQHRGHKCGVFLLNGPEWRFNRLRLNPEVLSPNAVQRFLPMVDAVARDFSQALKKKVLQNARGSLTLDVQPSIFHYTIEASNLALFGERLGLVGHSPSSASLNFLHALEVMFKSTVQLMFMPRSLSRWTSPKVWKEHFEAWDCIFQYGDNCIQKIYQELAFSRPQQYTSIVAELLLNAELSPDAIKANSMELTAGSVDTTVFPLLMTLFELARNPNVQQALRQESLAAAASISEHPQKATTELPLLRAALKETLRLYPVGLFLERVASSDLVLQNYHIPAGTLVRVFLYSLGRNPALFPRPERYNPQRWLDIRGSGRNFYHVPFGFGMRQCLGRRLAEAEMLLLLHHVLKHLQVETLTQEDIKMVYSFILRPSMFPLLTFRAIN

Homo sapiens [6] = species on record: Homo sapiens; experiment: Selectivity index, ratio of IC50 for CYP11B1 (unknown origin) to ratio of IC50 for CYP11B2 (unknown origin)
CYP11B1 = molecular target: T3, CYP11B1 (Homo sapiens, UniProt P15538); experiment: Inhibition of CYP11B1 (unknown origin)
T3 sequence (P15538 whole entry): T2 sequence (P15538 whole entry)

Row | SMILES | MIC90 (Candida albicans) | Ratio IC50 (Homo sapiens [6]) | IC50 (CYP11B1) | further results
1 | Clc1ccc(COC(Cn2ccnc2)c2ccc(Cl)cc2Cl)cc1 (stereo not given) [ECONAZOLE] | 2 µg/mL (≈ 5.24 µM) | – | – | logD [1]: 5.25; logP [2]: 5.25
2 | Clc1ccc(COC(Cn2ccnc2)c2ccc(Cl)cc2Cl)c(Cl)c1 (stereo not given) [MICONAZOLE] | 0.5 µg/mL (≈ 1.2 µM) | – | – | –
3 | CCC(=O)N1CCc2cc(-c3cccnc3)ccc21 | – | – | – | Ratio IC50 (Homo sapiens [3]): 21; IC50 [4]: 0.228 µM; IC50 [5]: 4.74 µM
4 | Clc1ccccc1C(c1ccccc1)(c1ccccc1)n1ccnc1 [CLOTRIMAZOLE] | 1 µg/mL (≈ 2.9 µM) | – | – | logD [1]: 5.05; logP [2]: 5.05
5 | Cc1nnc2n1-c1cc(F)c(-c3cccnc3)cc1CC2 | – | 96 | 12.6 µM | –
6 | Cc1nnc2n1-c1c(F)cc(-c3cccnc3)cc1CC2 | – | 272 | 17 µM | –
7 | Fc1cc(-c2cccnc2)cc2c1-n1cnnc1CC2 | – | 94 | 16.1 µM | –
8 | Fc1cc2c(cc1-c1cccnc1)CCc1nncn1-2 | – | 32 | 7.9 µM | –
9 | CC(=O)N1CCN(c2ccc(OCC3COC(Cn4ccnc4)(c4ccc(Cl)cc4Cl)O3)cc2)CC1 (stereo not given) [KETOCONAZOLE] | 0.25 µg/mL (≈ 0.47 µM) | – | – | –
10 | OC(Cn1cncn1)(Cn1cncn1)c1ccc(F)cc1F [FLUCONAZOLE] | 1 µg/mL (≈ 3.27 µM) | – | – | –
